ChEMBL document CHEMBL1201862, “PubChem BioAssay data set” (2004)
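Each compound was tested at five concentrations against cells in 96-well plates for 48 hours. GI50: concentration for 50% inhibition of growth.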 Calls of active or inactive are those of the source. Cut-off read from the data, not from the text of the source: active = GI50 up to about 1.1 µM and inactive = higher.

Experiments:
Test in all cases: NCI anticancer screen, dose series, 48 h
A549 = test system: A549
CCRF-CEM = test system: CCRF-CEM
DU-145 = test system: DU-145
HCC 2998 = test system: HCC 2998
HCT-116 = test system: HCT-116
IGROV-1 = test system: IGROV-1
K562 = test system: K562
KM12 = test system: KM12
MDA-MB-231 = test system: MDA-MB-231
MDA-MB-435 = test system: MDA-MB-435
MDA-N = test system: MDA-N
NCI/ADR-RES = test system: NCI/ADR-RES
OVCAR-8 = test system: OVCAR-8
RPMI-8226 = test system: RPMI-8226
SF-268 = test system: SF-268
SF-539 = test system: SF-539
SK-MEL-28 = test system: SK-MEL-28
SN12C = test system: SN12C
SNB-75 = test system: SNB-75
U-251 = test system: U-251

Measured: GI50

COc1cc(C)cc(C(=O)OCc2ccccc2)c1C1=C(Cl)C(=O)C(Cl)=CC1=O
inactive: A549 > 10 µM | CCRF-CEM 2.08 µM | DU-145 > 10 µM | HCC 2998 > 10 µM | HCT-116 > 10 µM | IGROV-1 > 10 µM | K562 2.27 µM | KM12 > 10 µM | MDA-MB-231 > 10 µM | MDA-MB-435 > 10 µM | MDA-N > 10 µM | NCI/ADR-RES > 10 µM | OVCAR-8 > 10 µM | RPMI-8226 > 5.79 µM | SF-268 > 10 µM | SF-539 > 10 µM | SK-MEL-28 > 10 µM | SN12C > 10 µM | SNB-75 > 10 µM | U-251 > 10 µM

CC(C)(C)N/N=C(/Cc1nc2c3c(ccc2nc1O)C(=O)c1ccccc1C3=O)C(=O)NC1=C(Cl)C(=O)c2ccccc2C1=O
inactive: A549 18.3 µM | CCRF-CEM 14.4 µM | DU-145 21.8 µM | HCC 2998 17.9 µM | HCT-116 13.9 µM | IGROV-1 5.14 µM | K562 85.3 µM | KM12 2.7 µM | MDA-MB-231 1.98 µM | MDA-MB-435 33 µM | MDA-N 15.1 µM | NCI/ADR-RES 5.77 µM | OVCAR-8 10 µM | RPMI-8226 78.9 µM | SF-268 6.97 µM | SF-539 21 µM | SK-MEL-28 > 100 µM | SN12C 17 µM | SNB-75 2.38 µM | U-251 47.8 µM

CC1CC[C@@]2(OC1)OC1C[C@H]3[C@@H]4CC[C@H]5CC(OC6OC(CO)C(OC7OC(CO)C(O)C(O)C7O)C(O)C6O)CCC5(C)[C@H]4CCC3(C)C1[C@@H]2C (stereo not given in full)
inactive: A549 9.35 µM | CCRF-CEM 9.16 µM | DU-145 8.3 µM | HCC 2998 5.85 µM | HCT-116 7.53 µM | IGROV-1 2.52 µM | K562 12.5 µM | KM12 8.18 µM | MDA-MB-231 9.1 µM | MDA-MB-435 9.25 µM | MDA-N 8.2 µM | NCI/ADR-RES 9.64 µM | OVCAR-8 8.45 µM | RPMI-8226 13.7 µM | SF-268 9.57 µM | SF-539 8.38 µM | SK-MEL-28 9.2 µM | SN12C 7.35 µM | SNB-75 9.93 µM | U-251 8.99 µM

O=C1c2ccccc2C2CNC1(O)c1ccccc12 (stereo not given)
inactive: A549 > 100 µM | CCRF-CEM > 100 µM | DU-145 > 100 µM | HCC 2998 > 100 µM | HCT-116 > 100 µM | IGROV-1 > 100 µM | K562 > 100 µM | KM12 > 100 µM | MDA-MB-231 > 100 µM | MDA-MB-435 > 100 µM | MDA-N > 100 µM | NCI/ADR-RES > 100 µM | OVCAR-8 > 100 µM | RPMI-8226 > 100 µM | SF-268 > 100 µM | SF-539 > 100 µM | SK-MEL-28 > 100 µM | SN12C > 100 µM | SNB-75 > 100 µM | U-251 > 100 µM
